Experiments:
Serotonin 5-HT7 = molecular target: T1, Serotonin 5-HT7 (Homo sapiens, UniProt P34969); experiment: Radioligand displacement binding assay, [3H]LSD, 5-HT7
T1 construct: host or cells: CHO-K1

Serotonin 5-HT1A = molecular target: T2, Serotonin 5-HT1A (Homo sapiens, UniProt P08908); experiment: Radioligand displacement binding assay, [3H]8-OH-DPAT, 5-HT1A
T2 construct: host or cells: CHO-K1
T2 sequence (P08908 1-422): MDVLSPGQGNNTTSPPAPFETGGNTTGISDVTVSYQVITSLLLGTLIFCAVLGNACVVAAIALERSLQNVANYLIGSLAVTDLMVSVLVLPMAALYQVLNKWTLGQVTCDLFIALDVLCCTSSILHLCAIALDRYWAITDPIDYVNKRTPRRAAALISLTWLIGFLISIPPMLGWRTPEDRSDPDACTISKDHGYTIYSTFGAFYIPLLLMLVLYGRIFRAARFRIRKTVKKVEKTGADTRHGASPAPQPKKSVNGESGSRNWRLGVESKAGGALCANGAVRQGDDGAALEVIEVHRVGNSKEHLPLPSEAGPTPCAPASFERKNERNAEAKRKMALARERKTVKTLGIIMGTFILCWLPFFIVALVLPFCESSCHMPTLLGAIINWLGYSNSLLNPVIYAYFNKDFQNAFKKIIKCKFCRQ

Sigma σ1 = molecular target: T3, Sigma σ1 (Homo sapiens, UniProt Q99720); experiment: Radioligand displacement binding assay, [3H]pentazocine, sigma σ1
T3 construct: Sigma σ1; Source: Human Jurkat cells; host or cells: Jurkat

[1] = molecular target: GluN1-GluN2D NMDAR subtype (Homo sapiens, UniProt O15399+Q05586); experiment: FLIPR/Ca2+ assay, NMDAR GluN1-GluN2D subtype in CHO cells; format: cell-based; conditions: CHO cells, 10 μM L-glutamate and 10 μM glycine; n.d. = 50% of inhibition could not be reached at the highest concentration used
Protocol: (§1) These compounds were assessed for their effects on specific heterodimeric NMDAR subtypes stably overexpressed in Chinese Hamster Ovary (CHO) cells. The subtypes tested included GluN1-GluN2A, GluN1-GluN2B, GluN1-GluN2C, and GluN1-GluN2D. CHO cells expressing each of the four NMDAR subtypes were incubated with 10 μM L-glutamate, a concentration known to elicit maximal Ca^2+ influx, serving as the stimulus. Intracellular Ca^2+ levels were subsequently measured to determine the extent of NMDAR activation.
(§2) Assay buffer composition was 145 mM NaCl, 5 mM KCl, 2 mM CaCl2, 1 g/Liter D-(+)-glucose, and 20 mM HEPES (pH 7.3 adjusted with NaOH). Cells were plated at a density of 15.000/well in 384 black/clear bottom plates. […] Cells were kept at 30 °C in 5% CO2 incubator for 24 h. Cells were preloaded for 1 h with 2 μM Fluo-4 Ca^2+-sensitive probe, simultaneously with 2.5 mM probenecid, an inhibitor of nonspecific anion transport, and 500 μM ketamine to avoid cytotoxicity. […] Intracellular Ca^2+ level was monitored by FLIPR (excitation wavelength at 470–495 nm, emission wavelength at 515–575 nm) for 10 s before and 5 min after the addition of test items. All test items, including L-glutamate and glycine, were added simultaneously. […] FLIPR data were normalized as 100%, in the presence of 10 μM L-glutamate and 10 μM glycine, while as 0%, in the presence of assay buffer. […] Then, data were normalized by Excel 2013 (Microsoft Office) software, using wells added with 10 μM L-glutamate plus 10 μM glycine (column 23) as high control, and wells added with assay buffer only (column 24) as low control. To assess plate quality, Z′ calculations were performed in Excel. Z′ was calculated according to following equation: Z′ = 1–3(σh + σl)/|μh – μL| where μ and σ are the means and the standard deviations of the means of high (h) and low (l) controls, respectively. Compound concentration–response curves were plotted by Prism 8 GraphPad software, in the different experimental conditions (see Supporting Information). Data were analyzed using least-squares regression fitting, to fit data to a standard four parameters logistic equation using GraphPad Prism10. This regression fitting allowed the calculation of pIC50 and the corresponding SEM.

Histamine H1 = molecular target: T4, Histamine H1 (Homo sapiens, UniProt P35367); experiment: Radioligand displacement binding assay, [3H]pyrilamine, H1
T4 construct: host or cells: CHO-K1

[2] = molecular target: GluN1-GluN2A NMDAR subtype (Homo sapiens, UniProt Q05586+Q12879); experiment: FLIPR/Ca2+ assay, NMDAR GluN1-GluN2A subtype in CHO cells; format: cell-based; conditions: CHO cells, 10 μM L-glutamate and 10 μM glycine; n.d. = 50% of inhibition could not be reached at the highest concentration used
Protocol: as §1, §2

[3] = molecular target: GluN1-GluN2C NMDAR subtype (Homo sapiens, UniProt Q05586+Q14957); experiment: FLIPR/Ca2+ assay, NMDAR GluN1-GluN2C subtype in CHO cells; format: cell-based; conditions: CHO cells, 10 μM L-glutamate and 10 μM glycine; n.d. = 50% of inhibition could not be reached at the highest concentration used
Protocol: as §1, §2

Serotonin 5-HT5A = molecular target: T5, Serotonin 5-HT5A (Homo sapiens, UniProt P47898); experiment: Radioligand displacement binding assay, [3H]LSD, 5-HT5A
T5 construct: host or cells: CHO-K1

[4] = test system: Glutamate, NMDA, Phencyclidine binding site; experiment: Radioligand displacement binding assay, [3H]TCP, NMDA; set-up: species or system Wistar rat
Serotonin 5-HT2A = molecular target: T6, Serotonin 5-HT2A (Homo sapiens, UniProt P28223); experiment: Radioligand displacement binding assay, [3H]ketanserin, 5-HT2A
T6 construct: host or cells: CHO-K1

[5] = molecular target: T7, Serotonin transporter SERT (Homo sapiens, UniProt P31645); experiment: Radioligand displacement binding assay, [3H]paroxetine, SERT; conditions: for inhibition at 10 µM / % inhibition of binding, SERT: 10 μM
T7 construct: host or cells: HEK-293

μ opioid receptor (MOP) = molecular target: T8, μ opioid receptor (MOP) (Homo sapiens, UniProt P35372); experiment: biochemical; format: binding; conditions: for inhibition at 0.3 µM / inhibition at 3 µM: read-out: % inhibition of binding, MOP
T8 construct: host or cells: CHO-K1

[6] = molecular target: T9, GluN1-GluN2B NMDAR subtype (Homo sapiens, UniProt Q05586+Q13224); experiment: FLIPR/Ca2+ assay, NMDAR GluN1-GluN2B subtype in CHO cells; format: cell-based; conditions: CHO cells, 10 μM L-glutamate and 10 μM glycine; n.d. = 50% of inhibition could not be reached at the highest concentration used
T9 construct: host or cells: NR1-2B-CHO cells, constitutive expression
Protocol: as §1, §2

Muscarinic M5 = molecular target: T10, Muscarinic M5 (Homo sapiens, UniProt P08912); experiment: Radioligand displacement binding assay, [3H]N-methylscopolamine, M5
T10 construct: host or cells: CHO-K1
T10 sequence (P08912 1-532): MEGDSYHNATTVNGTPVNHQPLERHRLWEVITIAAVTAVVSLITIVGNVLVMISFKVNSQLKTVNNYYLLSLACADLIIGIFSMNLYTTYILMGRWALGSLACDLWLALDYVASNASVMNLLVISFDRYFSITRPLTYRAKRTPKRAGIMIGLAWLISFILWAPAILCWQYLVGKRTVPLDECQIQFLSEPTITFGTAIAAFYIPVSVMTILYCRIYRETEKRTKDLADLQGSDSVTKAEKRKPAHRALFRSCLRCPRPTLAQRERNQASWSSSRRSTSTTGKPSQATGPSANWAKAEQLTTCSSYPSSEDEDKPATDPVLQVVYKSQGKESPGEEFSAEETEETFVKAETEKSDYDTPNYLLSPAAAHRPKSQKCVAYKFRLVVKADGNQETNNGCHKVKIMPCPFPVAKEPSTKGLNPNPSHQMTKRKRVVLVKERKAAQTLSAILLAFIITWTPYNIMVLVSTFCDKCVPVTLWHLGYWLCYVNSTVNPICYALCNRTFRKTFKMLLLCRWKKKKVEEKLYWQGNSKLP

Serotonin 5-HT2C = molecular target: T11, Serotonin 5-HT2C (Homo sapiens, UniProt P28335); experiment: Radioligand displacement binding assay, [3H]mesulergine, 5-HT2C
T11 construct: host or cells: CHO-K1
T11 sequence (P28335 33-458): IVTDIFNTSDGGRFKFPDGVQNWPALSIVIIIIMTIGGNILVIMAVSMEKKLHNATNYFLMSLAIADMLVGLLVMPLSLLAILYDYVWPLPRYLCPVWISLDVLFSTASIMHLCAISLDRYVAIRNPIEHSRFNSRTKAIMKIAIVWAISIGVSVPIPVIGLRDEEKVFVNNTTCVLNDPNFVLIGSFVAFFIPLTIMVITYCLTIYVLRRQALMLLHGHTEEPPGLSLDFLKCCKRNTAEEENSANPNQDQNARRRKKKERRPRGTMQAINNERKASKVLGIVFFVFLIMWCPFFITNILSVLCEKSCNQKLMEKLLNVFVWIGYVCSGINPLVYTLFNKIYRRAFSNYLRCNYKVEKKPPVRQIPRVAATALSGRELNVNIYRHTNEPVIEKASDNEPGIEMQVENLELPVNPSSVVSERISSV

[7] = molecular target: T12, Norepinephrine transporter NET (Homo sapiens, UniProt P23975); experiment: Radioligand displacement binding assay, [125I]RTI-55, NET
T12 construct: host or cells: MDCK
T12 sequence (P23975 whole entry): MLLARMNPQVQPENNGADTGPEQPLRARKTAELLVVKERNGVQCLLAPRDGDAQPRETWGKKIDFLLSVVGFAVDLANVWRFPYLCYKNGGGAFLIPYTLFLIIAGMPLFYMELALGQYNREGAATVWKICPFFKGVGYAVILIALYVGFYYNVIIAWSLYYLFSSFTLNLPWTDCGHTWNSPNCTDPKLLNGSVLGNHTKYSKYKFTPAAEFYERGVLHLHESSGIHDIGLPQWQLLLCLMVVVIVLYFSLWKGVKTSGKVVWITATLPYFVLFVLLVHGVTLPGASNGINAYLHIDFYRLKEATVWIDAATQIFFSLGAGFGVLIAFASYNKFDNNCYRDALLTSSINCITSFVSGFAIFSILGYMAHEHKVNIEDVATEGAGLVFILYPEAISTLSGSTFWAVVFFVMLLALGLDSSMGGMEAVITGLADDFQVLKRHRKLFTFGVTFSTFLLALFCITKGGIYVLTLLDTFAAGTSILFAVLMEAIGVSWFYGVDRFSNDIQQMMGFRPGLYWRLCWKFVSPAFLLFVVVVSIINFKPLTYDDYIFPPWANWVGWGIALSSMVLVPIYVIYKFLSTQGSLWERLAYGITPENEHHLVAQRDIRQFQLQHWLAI

T9 sequence (Q13224 27-1484, other chains not shown): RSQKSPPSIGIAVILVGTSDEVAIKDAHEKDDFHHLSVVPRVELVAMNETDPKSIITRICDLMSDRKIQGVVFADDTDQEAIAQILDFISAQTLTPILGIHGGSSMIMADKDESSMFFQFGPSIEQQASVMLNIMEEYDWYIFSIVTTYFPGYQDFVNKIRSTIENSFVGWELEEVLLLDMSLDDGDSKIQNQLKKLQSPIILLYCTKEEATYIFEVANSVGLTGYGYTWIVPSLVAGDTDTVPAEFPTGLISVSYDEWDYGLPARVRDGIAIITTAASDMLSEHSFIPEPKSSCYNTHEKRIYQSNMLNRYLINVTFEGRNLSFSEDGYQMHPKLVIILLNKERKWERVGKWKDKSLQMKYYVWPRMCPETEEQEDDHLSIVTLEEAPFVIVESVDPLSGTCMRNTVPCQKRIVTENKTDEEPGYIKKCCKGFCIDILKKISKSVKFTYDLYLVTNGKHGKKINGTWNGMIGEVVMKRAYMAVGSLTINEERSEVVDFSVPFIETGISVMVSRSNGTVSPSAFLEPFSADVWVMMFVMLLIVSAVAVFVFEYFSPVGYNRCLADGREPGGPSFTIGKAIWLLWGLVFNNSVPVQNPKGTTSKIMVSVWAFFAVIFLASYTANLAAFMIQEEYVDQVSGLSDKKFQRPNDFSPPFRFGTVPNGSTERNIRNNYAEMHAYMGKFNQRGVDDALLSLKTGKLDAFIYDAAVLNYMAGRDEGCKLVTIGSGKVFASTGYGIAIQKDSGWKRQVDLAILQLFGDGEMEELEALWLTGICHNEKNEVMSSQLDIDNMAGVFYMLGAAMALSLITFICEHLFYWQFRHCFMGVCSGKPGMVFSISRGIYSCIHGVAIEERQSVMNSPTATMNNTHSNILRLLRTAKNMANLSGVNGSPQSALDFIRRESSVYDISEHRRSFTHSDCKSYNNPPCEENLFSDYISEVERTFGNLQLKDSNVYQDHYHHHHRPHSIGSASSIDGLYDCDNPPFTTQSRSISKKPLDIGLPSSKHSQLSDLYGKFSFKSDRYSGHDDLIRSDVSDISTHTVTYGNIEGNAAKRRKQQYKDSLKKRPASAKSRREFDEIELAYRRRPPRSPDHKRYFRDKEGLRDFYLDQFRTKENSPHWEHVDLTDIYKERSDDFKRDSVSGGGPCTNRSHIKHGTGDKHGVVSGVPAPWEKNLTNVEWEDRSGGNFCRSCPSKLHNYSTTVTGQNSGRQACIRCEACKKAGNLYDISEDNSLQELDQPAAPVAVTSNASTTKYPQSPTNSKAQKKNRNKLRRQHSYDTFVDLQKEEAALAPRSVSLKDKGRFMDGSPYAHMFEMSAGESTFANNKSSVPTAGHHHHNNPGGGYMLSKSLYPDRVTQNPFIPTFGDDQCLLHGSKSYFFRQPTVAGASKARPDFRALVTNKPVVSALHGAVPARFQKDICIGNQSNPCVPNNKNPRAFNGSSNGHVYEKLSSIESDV
Sequence of GluN1-GluN2D NMDAR subtype (O15399 28-1336, other chains not shown): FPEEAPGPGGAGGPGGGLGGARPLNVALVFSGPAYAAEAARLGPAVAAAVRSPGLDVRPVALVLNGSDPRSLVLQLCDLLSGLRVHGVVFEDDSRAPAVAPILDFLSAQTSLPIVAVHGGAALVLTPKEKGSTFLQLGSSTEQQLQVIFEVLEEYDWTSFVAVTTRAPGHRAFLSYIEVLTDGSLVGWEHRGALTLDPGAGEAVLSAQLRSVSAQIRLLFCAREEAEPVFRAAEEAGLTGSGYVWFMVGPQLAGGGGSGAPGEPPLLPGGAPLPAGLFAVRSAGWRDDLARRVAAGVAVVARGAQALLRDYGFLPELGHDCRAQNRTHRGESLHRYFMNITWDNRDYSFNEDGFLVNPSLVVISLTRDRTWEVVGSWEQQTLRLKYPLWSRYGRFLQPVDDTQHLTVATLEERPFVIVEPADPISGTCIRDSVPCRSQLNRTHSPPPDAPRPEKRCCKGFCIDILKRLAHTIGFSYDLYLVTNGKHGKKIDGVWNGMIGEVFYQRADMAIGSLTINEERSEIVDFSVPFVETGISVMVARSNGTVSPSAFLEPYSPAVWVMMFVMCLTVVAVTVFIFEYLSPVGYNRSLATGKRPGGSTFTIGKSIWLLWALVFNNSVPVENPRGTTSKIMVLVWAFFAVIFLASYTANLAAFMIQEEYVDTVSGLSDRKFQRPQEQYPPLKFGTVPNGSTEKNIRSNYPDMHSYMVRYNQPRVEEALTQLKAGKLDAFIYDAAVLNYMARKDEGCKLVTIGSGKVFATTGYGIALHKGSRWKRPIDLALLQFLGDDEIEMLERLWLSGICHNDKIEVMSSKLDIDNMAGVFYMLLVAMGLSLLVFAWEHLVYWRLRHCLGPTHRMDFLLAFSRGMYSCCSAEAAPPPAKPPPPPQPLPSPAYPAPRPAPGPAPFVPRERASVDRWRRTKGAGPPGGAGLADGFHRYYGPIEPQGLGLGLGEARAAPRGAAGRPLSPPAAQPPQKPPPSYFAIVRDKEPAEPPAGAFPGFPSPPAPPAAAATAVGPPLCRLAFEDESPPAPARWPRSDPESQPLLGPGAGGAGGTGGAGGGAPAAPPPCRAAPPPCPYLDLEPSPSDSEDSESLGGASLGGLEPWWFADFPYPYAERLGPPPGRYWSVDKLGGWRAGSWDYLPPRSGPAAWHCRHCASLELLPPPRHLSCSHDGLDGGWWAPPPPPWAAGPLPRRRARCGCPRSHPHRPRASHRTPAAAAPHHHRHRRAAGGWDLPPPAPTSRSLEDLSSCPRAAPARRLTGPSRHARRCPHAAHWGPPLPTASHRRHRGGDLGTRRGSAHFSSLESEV
T3 sequence (Q99720 whole entry): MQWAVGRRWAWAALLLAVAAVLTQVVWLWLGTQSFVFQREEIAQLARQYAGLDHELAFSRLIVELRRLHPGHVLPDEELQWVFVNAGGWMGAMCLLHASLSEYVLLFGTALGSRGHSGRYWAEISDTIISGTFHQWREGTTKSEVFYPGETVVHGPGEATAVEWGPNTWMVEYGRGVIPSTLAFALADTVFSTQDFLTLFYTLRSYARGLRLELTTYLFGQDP
T1 sequence (P34969 whole entry): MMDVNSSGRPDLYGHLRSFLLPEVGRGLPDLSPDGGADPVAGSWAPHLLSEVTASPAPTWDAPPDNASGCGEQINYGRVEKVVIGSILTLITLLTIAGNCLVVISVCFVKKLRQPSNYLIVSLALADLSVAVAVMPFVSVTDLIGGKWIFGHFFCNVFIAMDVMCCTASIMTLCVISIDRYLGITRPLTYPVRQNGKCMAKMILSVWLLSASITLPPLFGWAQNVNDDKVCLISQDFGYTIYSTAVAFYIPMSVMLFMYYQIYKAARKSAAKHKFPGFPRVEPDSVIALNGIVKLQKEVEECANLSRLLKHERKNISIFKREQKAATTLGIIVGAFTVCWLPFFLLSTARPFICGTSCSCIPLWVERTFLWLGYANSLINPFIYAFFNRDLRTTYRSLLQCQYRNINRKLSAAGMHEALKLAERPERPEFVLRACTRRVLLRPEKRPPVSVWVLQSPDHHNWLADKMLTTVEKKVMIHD
T6 sequence (P28223 whole entry): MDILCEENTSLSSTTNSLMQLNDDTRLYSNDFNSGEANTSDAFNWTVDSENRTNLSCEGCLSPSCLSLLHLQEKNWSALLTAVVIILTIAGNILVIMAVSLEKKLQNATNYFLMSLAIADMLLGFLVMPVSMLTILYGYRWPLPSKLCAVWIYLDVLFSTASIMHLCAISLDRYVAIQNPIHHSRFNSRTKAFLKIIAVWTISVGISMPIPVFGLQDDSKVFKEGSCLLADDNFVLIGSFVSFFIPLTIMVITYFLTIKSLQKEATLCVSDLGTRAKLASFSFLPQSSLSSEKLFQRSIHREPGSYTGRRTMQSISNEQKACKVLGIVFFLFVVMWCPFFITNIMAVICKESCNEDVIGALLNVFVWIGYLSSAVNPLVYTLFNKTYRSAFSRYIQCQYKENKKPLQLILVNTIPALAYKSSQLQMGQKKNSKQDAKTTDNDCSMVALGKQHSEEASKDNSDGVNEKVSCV
T5 sequence (P47898 whole entry): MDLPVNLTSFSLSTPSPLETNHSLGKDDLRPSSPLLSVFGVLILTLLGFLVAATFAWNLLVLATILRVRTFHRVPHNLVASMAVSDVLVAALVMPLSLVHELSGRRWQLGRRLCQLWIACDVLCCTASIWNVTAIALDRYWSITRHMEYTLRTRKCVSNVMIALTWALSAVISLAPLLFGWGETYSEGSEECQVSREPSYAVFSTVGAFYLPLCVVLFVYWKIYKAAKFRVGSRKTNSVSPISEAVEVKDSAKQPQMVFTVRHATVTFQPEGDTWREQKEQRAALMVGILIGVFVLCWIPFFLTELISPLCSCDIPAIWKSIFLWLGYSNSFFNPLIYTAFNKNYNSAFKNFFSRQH

| Compound | inhibition at 1 µM (Serotonin 5-HT7) [%] | inhibition at 10 µM (Serotonin 5-HT7) [%] | inhibition at 0.3 µM (Serotonin 5-HT1A) [%] | inhibition at 3 µM (Serotonin 5-HT1A) [%] | inhibition at 0.3 µM (Sigma σ1) [%] | inhibition at 3 µM (Sigma σ1) [%] | pIC50 (mean ± SEM) GluN1-GluN2D [1] | inhibition at 10 µM (Histamine H1) [%] | inhibition at 30 µM (Histamine H1) [%] | pIC50 (mean ± SEM) GluN1-GluN2A [2] | pIC50 (mean ± SEM) GluN1-GluN2C [3] | inhibition at 1 µM (Serotonin 5-HT5A) [%] | inhibition at 10 µM (Serotonin 5-HT5A) [%] | % inhibition of binding, NMDA ([4]; 1 μM) [%] | % inhibition of binding, NMDA ([4]; 10 μM) [%] | inhibition at 0.3 µM (Serotonin 5-HT2A) [%] | inhibition at 3 µM (Serotonin 5-HT2A) [%] | inhibition at 1 µM [5] [%] | inhibition at 10 µM [5] [%] | inhibition at 0.3 µM (μ opioid receptor (MOP)) [%] | other results |
| --- | --- | --- | --- | --- | --- | --- | --- | --- | --- | --- | --- | --- | --- | --- | --- | --- | --- | --- | --- | --- | --- |
| CC[C@@H](O)C(C[C@@H](C)N)(c1ccccc1)c1ccccc1 [(3R,6R)-DNML, (3R,6R)-6-amino-4,4-diphenylheptan-3-ol] | 12 | 8 | 0 | 4 | 14 | 47 | 4.7 ± 0.058 | 3 | 9 | 4.8 ± 0.060 | 4.7 ± 0.050 | 4 | -4 | 12 | 54 | 6 | 8 | -1 | 20 | -7 | inhibition at 3 µM (μ opioid receptor (MOP)): 9%; pIC50 (mean ± SEM) GluN1-GluN2B [6]: 4.6 ± 0.054; inhibition at 1 µM (Muscarinic M5): -1%; inhibition at 10 µM (Muscarinic M5): 33%; inhibition at 0.3 µM (Serotonin 5-HT2C): 7%; inhibition at 3 µM (Serotonin 5-HT2C): 16%; inhibition at 1 µM [7]: 4%; inhibition at 10 µM [7]: 6% |
| CC[C@H](O)C(C[C@H](C)N)(c1ccccc1)c1ccccc1 [(3S,6S)-DNML, (3S,6S)-6-amino-4,4-diphenylheptan-3-ol] | 5 | 4 | 24 | 15 | 46 | 71 | 4.7 ± 0.079 | 5 | 24 | 4.9 ± 0.081 | 4.7 ± 0.056 | -7 | -12 | 9 | 36 | 12 | 10 | 35 | 82 | 38 | % inhibition of binding, SERT [5]: displaced; inhibition at 3 µM (μ opioid receptor (MOP)): 84%; pIC50 (mean ± SEM) GluN1-GluN2B [6]: 4.4 ± 0.13; inhibition at 1 µM (Muscarinic M5): 1%; inhibition at 10 µM (Muscarinic M5): 9%; inhibition at 0.3 µM (Serotonin 5-HT2C): 1%; inhibition at 3 µM (Serotonin 5-HT2C): 19%; inhibition at 1 µM [7]: -5%; inhibition at 10 µM [7]: 3% |
| CC[C@@H](O)C(C[C@@H](C)NC)(c1ccccc1)c1ccccc1 [(3R,6R)-NML, (3R,6R)-6-(methylamino)-4,4-diphenylheptan-3-ol] | 4 | 5 | -9 | -10 | 4 | 33 | 5.0 ± 0.052 | 15 | 20 | 5.0 ± 0.081 | 5.0 ± 0.048 | 13 | 63 | 17 | 57 | 0 | -3 | 18 | 69 | 4 | pKi (mean ± SEM) [3H]TCP, NMDA ([4]; Wistar rat cerebral cortex, 4.0 nM [3H]TCP): 5.56 ± 0.07; % inhibition of binding, SERT [5]: displaced; pKi (mean ± SEM) [3H]diprenorphine, MOP (μ opioid receptor (MOP)): 5.64 ± 0.09; inhibition at 3 µM (μ opioid receptor (MOP)): 11%; pIC50 (mean ± SEM) GluN1-GluN2B [6]: 4.8 ± 0.055; inhibition at 1 µM (Muscarinic M5): 15%; inhibition at 10 µM (Muscarinic M5): 43%; inhibition at 0.3 µM (Serotonin 5-HT2C): 18%; inhibition at 3 µM (Serotonin 5-HT2C): 16%; inhibition at 1 µM [7]: -2%; inhibition at 10 µM [7]: 14% |
| CC[C@H](O)C(C[C@@H](C)N)(c1ccccc1)c1ccccc1 [(3S,6R)-DNML, (3S,6R)-6-amino-4,4-diphenylheptan-3-ol] | 8 | 5 | -11 | -1 | -4 | 18 | 4.7 ± 0.061 | 15 | 28 | 4.5 ± 0.031 | 4.6 ± 0.038 | -1 | 11 | 8 | 38 | 9 | 10 | 15 | 36 | 9 | inhibition at 3 µM (μ opioid receptor (MOP)): 23%; pIC50 (mean ± SEM) GluN1-GluN2B [6]: 4.4 ± 0.042; inhibition at 1 µM (Muscarinic M5): 12%; inhibition at 10 µM (Muscarinic M5): 39%; inhibition at 0.3 µM (Serotonin 5-HT2C): 9%; inhibition at 3 µM (Serotonin 5-HT2C): 27%; inhibition at 1 µM [7]: 0%; inhibition at 10 µM [7]: 22% |
